# Legend:
# [1] = Human plasma level and half-life; assay type: in vivo
# [2] = tested on: certain cytochrome P450 enzymes; assay: Cytochrome P450 inhibition in vitro; assay type: in vitro ADME, human
# From the text: (§1) In order to evaluate the effect of the compounds of formula I on cytochromes P450 (CYPs), e.g. enzyme inhibition is routinely assessed by performing in vitro inhibition studies using cDNA-expressed enzymes or human liver microsomes (Parkinson, A., Toxicol. Pathol. 24, 45-57 [1996]). Specific drug marker substrate assays according to Tucker et al., Clin. Pharmacol. Ther. 70, 103-114 (2001) can be used to determine the 50% inhibition concentration (IC50) of a compound of formula I for the principal drug-metabolizing P450 enzymes such as e.g. CYP1A2, CYP2A6, CYP2B6, CYP2C8, CYP2C9, CYP2C19, CYP2D6, CYP2E1, CYP3A4/5 and CP4A9/11.
# (§2) Inhibition constants Ki or IC50 values derived by these in vitro assays provide a measure for the inhibition capacity of the tested drug compound according to the ratio of drug concentration in plasma to the respective inhibition constant Ki, where a ratio of >1.0 results in a high risk, 1.0-0.1 in a medium risk, and <0.1 in a low risk of metabolic drug interaction.
# CYP2D6 = CYP2D6 (Homo sapiens, UniProt P10635); assay: Risk of metabolic drug interaction from in vitro P450 inhibition, CYP2D6; assay type: in vitro ADME; settings: ratio of plasma concentration to Ki
# From the text: as §1, §2
# CYP3A4/5 = assay: Risk of metabolic drug interaction from in vitro P450 inhibition, CYP3A4/5; assay type: in vitro ADME, human; settings: ratio of plasma concentration to Ki
# From the text: as §1, §2
# Chain of CYP2D6 (P10635 whole entry): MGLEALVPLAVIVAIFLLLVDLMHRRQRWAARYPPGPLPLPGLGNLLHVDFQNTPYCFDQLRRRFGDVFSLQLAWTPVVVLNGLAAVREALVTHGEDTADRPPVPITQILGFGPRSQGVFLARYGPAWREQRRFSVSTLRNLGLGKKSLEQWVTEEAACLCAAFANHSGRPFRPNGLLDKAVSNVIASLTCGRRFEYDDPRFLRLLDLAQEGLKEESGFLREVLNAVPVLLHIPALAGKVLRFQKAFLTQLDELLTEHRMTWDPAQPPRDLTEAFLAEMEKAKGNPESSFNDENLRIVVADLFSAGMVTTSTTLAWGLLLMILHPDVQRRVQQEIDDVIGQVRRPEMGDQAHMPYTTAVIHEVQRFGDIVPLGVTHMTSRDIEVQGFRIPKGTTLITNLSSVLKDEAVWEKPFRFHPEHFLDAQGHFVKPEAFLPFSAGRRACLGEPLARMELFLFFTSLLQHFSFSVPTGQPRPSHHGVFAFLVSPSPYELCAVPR
half-life compared with STI571 [1],inhibition of certain cytochrome P450 enzymes compared with STI571 [2],risk of drug-drug interactions compared with STI571 (CYP2D6),risk of drug-drug interactions compared with STI571 (CYP3A4/5),melting point,Structure (SMILES)
somewhat longer than that of STI571,less inhibition,much lower risk,much lower risk,–,"Cc1ccc(NC(=O)c2ccc(CN3CCNCC3)cc2)cc1Nc1nccc(-c2cccnc2)n1 [Example 9, N-[4-methyl-3-(4-pyridin-3-yl-pyrimidin-2-ylamino)-phenyl]-4-piperazin-1-ylmethyl-benzamide]"
–,–,–,–,209.5 to 210.5 °C,"CCN1CCN(Cc2ccc(C(=O)Nc3ccc(C)c(Nc4nccc(-c5cccnc5)n4)c3)cc2)CC1 [Example 1, 4-(4-ethyl-piperazin-1-ylmethyl)-N-[4-methyl-3-(4-pyridin-3-yl-pyrimidin-2-ylamino)-phenyl]-benzamide]"
–,–,–,–,242 to 245 °C,"CS(=O)(=O)O.Cc1ccc(NC(=O)c2ccc(CN3CCNCC3)cc2)cc1Nc1nccc(-c2cccnc2)n1 [Example 10, N-[4-methyl-3-(4-pyridin-3-yl-pyrimidin-2-ylamino)-phenyl]-4-piperazin-1-ylmethyl-benzamide methanesulfonate]"
